Measurements as given in PMC12486805, “Preclinical evaluation of tridecaptin M: in vitro and in vivo efficacy against colistin-resistant Gram-negative bacterial pathogens and pharmacokinetics” (Antimicrobial Agents and Chemotherapy, 2025).
Like-named read-outs stand apart in the source and are kept apart here. Where a SMILES comes first, the peptide text is derived from it. [ ]: non-standard residue; d: D form. The star is where a group is joined. d(aIle) = CC[C@H](C)[C@@H](N)C(=O)O; X1 = CC[C@H](C)CCCCC(=O)*; dDab = NCC[C@@H](N)C(=O)O; Dab = NCC[C@H](N)C(=O)O

Legend:
[1] = system: K. pneumoniae ATCC 700603; conditions: ATCC 700603, 48 h
Experimental: LB, TSB, TSB + 1% Glucose, M63, and the M63 media were selected for biofilm experiments ([20], [30], [31]). With some modifications from previous methods, employing CV staining, K. pneumoniae cells were grown in M63 salt media at 37°C, 200 rpm shaking conditions overnight. […] Following incubation, the media and planktonic cells were gently removed, and the wells with adhered biofilm were washed three times with 0.9% saline. […] The biofilm inhibition was calculated as the percentage of biofilm remaining after treatment using the formula:
Biofilms remaining (%)=OD595 (sample)/OD595 (control)×100%

in vitro [2] = conditions: mouse, plasma, % Binding to Plasma Protein
Experimental: (§1) Plasma protein binding was assessed using the rapid equilibrium dialysis (RED) method, utilizing RED insert devices with a dialysis membrane featuring an 8,000 Dalton molecular weight cutoff for proteins. The test/control items in human, rat, and mouse plasma were prepared at a test concentration of 10 µM using 10 mM DMSO stocks, and the samples were added to the plasma chamber of the RED insert. The device was sealed with tape and incubated in a thermomixer at 37°C with shaking at 300 rpm for 4 h. Following incubation, a 50 µL aliquot of plasma and buffer was collected from each insert and diluted with an equal volume of the opposite matrix to mitigate matrix effects. The samples were quantified using LC-MS/MS analysis and were tested in duplicates.

[3] = concentrations well above its MIC; cited from earlier work
in vitro [4] = conditions: rat, microsomes
Experimental: For without cofactors, 20 µL of PBS was added instead of pre-incubated cofactors. […] At each specified time, a 100 µL sample was taken, processed through a sample extraction procedure, and submitted for LC-MS/MS analysis ([35]). Half-life (t1/2) of test/control items was determined using the following equation
where, elimination rate constant (k) = −(slope of linear regression curve).

CYP2C9 = CYP2C9 (Homo sapiens, UniProt P11712); test: CYP inhibition assay, recombinant isoform, fluorescence; assay type: biochemical
Sequence of CYP2C9 (P11712 whole entry, canonical isoform): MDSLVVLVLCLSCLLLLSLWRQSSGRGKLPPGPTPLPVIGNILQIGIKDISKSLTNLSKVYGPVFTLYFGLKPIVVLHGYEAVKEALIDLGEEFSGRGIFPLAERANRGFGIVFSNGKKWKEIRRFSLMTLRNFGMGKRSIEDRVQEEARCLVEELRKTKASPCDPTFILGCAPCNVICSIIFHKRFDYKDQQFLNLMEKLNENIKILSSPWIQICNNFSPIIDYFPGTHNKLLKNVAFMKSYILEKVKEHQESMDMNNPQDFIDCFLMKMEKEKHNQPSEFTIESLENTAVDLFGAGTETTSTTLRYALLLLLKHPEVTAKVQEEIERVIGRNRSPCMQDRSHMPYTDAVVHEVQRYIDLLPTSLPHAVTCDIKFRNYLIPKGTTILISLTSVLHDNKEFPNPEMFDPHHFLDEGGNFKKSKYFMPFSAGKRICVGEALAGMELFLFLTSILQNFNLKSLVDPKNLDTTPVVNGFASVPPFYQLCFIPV
Experimental: The CYP inhibition assay was performed for test/control inhibitor items in duplicates using a 96-well fluorescence plate. An example of the preparation of CYP inhibition is given below in Table 8.
The plate with CYP master premix with test/control was incubated to allow the test/control samples to interact with CYP enzyme for 10 ± 1 min at 25°C under shaking conditions (400 rpm) using Thermomixer. The assay was initiated by adding 10 µL of a substrate and NADP^+ mixture to all wells, including a vehicle control and an assay blank. The plate was then incubated at 25°C for 25 min with shaking at 400 rpm using a thermomixer. After incubation, the reaction was quenched by adding 50 µL of stop reagent (0.5 M Tris base) to each well. Fluorescence was measured using a microplate reader at excitation/emission wavelengths of 415/460 nm, respectively ([37]).

in vitro [5] = conditions: rat, plasma, % Binding to Plasma Protein
Experimental: as §1

in vitro [6] = conditions: human, plasma
Experimental: as §1

[7] = Experimental: Acute toxicity was performed on Balb/c female mice, 8 weeks old. This study was adopted and modified from a study described previously ([39]). Initial screening was done with 100 mg/kg, 200 mg/kg, 400 mg/kg, and 600 mg/kg doses of tridecaptin M and vehicle control (100% DMSO). […] Eight mice were taken, four in each group ([…]), one group was administered vehicle control (DMSO), and the other group was administered 600 mg/kg of tridecaptin M. After 3 days, blood was collected to obtain serum for biochemical tests, and mice were euthanized to remove organs (preserved in 10% formalin) for histopathological analysis.

SMILES: CC[C@H](C)CCCCC(=O)NCC(=O)N[C@H](CCN)C(=O)NCC(=O)N[C@H](CO)C(=O)N[C@H](Cc1c[nH]c2ccccc12)C(=O)N[C@@H](CO)C(=O)N[C@@H](CCN)C(=O)N[C@H](CCN)C(=O)N[C@H](C(=O)N[C@@H](CCC(=O)O)C(=O)N[C@H](C(=O)N[C@@H](C(=O)N[C@@H](CO)C(=O)O)[C@@H](C)CC)[C@@H](C)CC)[C@@H](C)CC [Tridecaptin M, tridecaptin M] (X1-G[dDab]G[dS][dW]S[Dab][dDab]IEI[d(aIle)]S-OH)
- % Biofilm remaining (biofilm inhibition) [1]; 1: 29.6%
- % Biofilm remaining (biofilm inhibition) [1]; 2: 7.0%
- % Biofilm remaining (biofilm inhibition) [1]; 5: 0.5%
- fraction unbound at 4 h, 10 µM (in vitro [2]): 0.5
- hemolysis [3]: non-hemolytic
- half-life (in vitro [4]; pH 7.4): > 2 h
- remaining at 0.25 h (in vitro [4]; pH 7.4): 86.4%
- remaining at 0.5 h (in vitro [4]; pH 7.4): 76.5%
- remaining at 1 h (in vitro [4]; pH 7.4): 70.1%
- remaining at 2 h (in vitro [4]; pH 7.4): 58.8%
- microsomal CLint (in vitro [4]; pH 7.4, CL, rat liver microsomes): < 11 µL/min/mg
- IC50 (CYP2C9): > 30 µM
- inhibition at 25 min, 0.01 µM (CYP2C9; human): < 0%
- inhibition at 25 min, 0.03 µM (CYP2C9; human): 0.93%
- inhibition at 25 min, 0.1 µM (CYP2C9; human): < 0%
- inhibition at 25 min, 0.3 µM (CYP2C9; human): < 0%
- inhibition at 25 min, 1 µM (CYP2C9; human): 0.05%
- inhibition at 25 min, 3 µM (CYP2C9; human): < 0%
- inhibition at 25 min, 10 µM (CYP2C9; human): 0.82%
- inhibition at 25 min, 30 µM (CYP2C9; human): 25.6%
- fraction unbound at 4 h, 10 µM (in vitro [5]): 0.465
- fraction unbound at 4 h, 10 µM (in vitro [6]): 0.227
- SGPT (serum) ([7]; 600 mg/kg s.c., female mouse TF-2, day 3): 112 Units/L
- mortality ([7]; single s.c. dose 100-600 mg/kg): No mortality was observed
- histopathology of heart, kidney, liver, brain, spleen ([7]; single s.c. dose 100-600 mg/kg, vs vehicle control): No signs of toxicity or pathological changes
- dose up to which safety is confirmed ([7]; subcutaneous administration): up to 600 mg/kg
